Results from ChEMBL document CHEMBL1201862, “PubChem BioAssay data set” (2004).
Activity calls are given as the source filed them. Cut-off read from the data, not from the text of the source, for most assays here: actives have a measured EC50 and inactives only a lower limit.

Tests used:
[1] = Luminescence Cell-Based Dose Response HTS to Identify Inhibitors of 5'UTR Stem-Loop Driven Prion Protein mRNA Translation in H4 Neuroglioblastoma Cells. [Related pubchem assays: 1827 (Project Summary), 1813 (Primary HTS)]; type: functional
[2] = inhibitors of firefly luciferase expression or activity, dose response, H4 neuroglioma cells, luminescence (AID 1990); type: functional, cell-based
[3] = inhibitors of SNCA 5'UTR-driven reporter translation, confirmation, H4 neuroglioma cells, luminescence (AID 1988); type: functional, cell-based
[4] = Luminescence Cell-Based Dose Confirmation HTS to Identify Inhibitors of Platelet Dense Granule Release. [Related pubchem assays: 1663 (Primary HTS), 1678 (Summary of Project)]; type: functional
[5] = target: Luciferin 4-monooxygenase (Photinus pyralis, UniProt P08659); assay: firefly luciferase enzyme inhibitors, dose response, biochemical, luminescence (AID 1891)
Chain of Luciferin 4-monooxygenase (P08659 whole entry): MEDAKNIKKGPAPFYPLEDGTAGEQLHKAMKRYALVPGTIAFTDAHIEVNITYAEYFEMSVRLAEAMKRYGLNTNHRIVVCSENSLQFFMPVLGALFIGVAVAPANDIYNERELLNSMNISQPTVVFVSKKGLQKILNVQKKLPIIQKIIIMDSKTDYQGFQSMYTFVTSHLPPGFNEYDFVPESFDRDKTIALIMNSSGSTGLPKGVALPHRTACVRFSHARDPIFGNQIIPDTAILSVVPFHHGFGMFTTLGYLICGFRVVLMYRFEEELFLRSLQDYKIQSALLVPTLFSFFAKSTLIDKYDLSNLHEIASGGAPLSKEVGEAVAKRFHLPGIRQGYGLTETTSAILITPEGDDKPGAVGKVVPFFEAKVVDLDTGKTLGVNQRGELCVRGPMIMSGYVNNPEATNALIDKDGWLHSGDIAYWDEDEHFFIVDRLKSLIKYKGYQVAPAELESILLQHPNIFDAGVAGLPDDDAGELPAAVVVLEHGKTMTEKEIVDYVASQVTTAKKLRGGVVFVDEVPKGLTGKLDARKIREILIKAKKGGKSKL

[6] = cytotoxicity toward NIH3T3 fibroblasts, dose response, counter-screen, cell-based, ATP luminescence, mouse fibroblasts (AID 2010); type: functional;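 note: cells exposed to compound for about 90 hours before reading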
[7] = inhibitors of intracellular T. cruzi replication, confirmation, NIH3T3 host cells, beta-gal luminescence (AID 2044); type: functional, cell-based;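 note: intracellular parasites grown in NIH/3T3 mouse fibroblasts as host cells; luminescent beta-galactosidase reporter signal from transgenic T. cruzi replicating inside host cells; inhibitors lower the luminescence signal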
[8] = NIH-3T3 fibroblast cytotoxicity, dose response, cytotoxicity control, cell-based, fluorescence, Alamar Blue, secondary assay (AID 2327); type: functional;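 note: NIH-3T3 mouse fibroblasts cultured with fluconazole at 8 µg/mL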
INS1 = assay: beta cell apoptosis inhibitors, cytokine rescue, dose response, luminescence, retest (AID 449756); type: functional, cell-based; details: Rattus norvegicus;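 note: cell death triggered by IL-1 beta plus TNF-alpha plus IFN-gamma mixture; protective hits raise ATP signal compared with cytokine alone wells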
[9] = C. albicans growth with fluconazole, confirmation, fluorescence, retest (AID 2467); type: functional, cell-based
Streptococcus = assay: Group A Streptococcus viability loss, dose response, counter-screen for streptokinase expression inhibitor project, luminescence, BacTiterGlo (AID 1915); type: functional, organism-based;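 note: potency for reduction of bacterial viability or growth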
[10] = system: Streptococcus sp. 'group A'; assay: growth inhibition of control SK(-) GAS strain, dose response, counter-screen for streptokinase expression inhibitor project, luminescence, kanamycin, BacTiterGlo, confirmation (AID 1900); type: functional, organism-based

| SMILES | EC50 [4] | EC50 [5] | other results |
| --- | --- | --- | --- |
| Nc1nc(NCCc2ccccc2)nc(NCCO)c1[N+](=O)[O-] | – | – | EC50 [1]: > 120 µM (not active); EC50 [2]: 19.1 µM (active); EC50 [3]: 39.1 µM (active) |
| COc1ccccc1C(=O)NCCC(=O)Nc1ncccc1O | > 112 µM (not active) | > 112 µM (not active) | – |
| Cc1cc(N)n2nc(-c3ccc(C(C)(C)C)cc3)cc2n1 | 2.35 µM (active) | 0.401 µM (active) | – |
| O=C(Cn1cc2c(n1)CCCC2)NCc1cccc(Cl)c1 | – | – | EC50 [1]: > 120 µM (not active); EC50 [2]: > 120 µM (not active); EC50 [3]: > 120 µM (not active) |
| COc1ccccc1N1CCN(C(=O)c2cc(-c3ccccc3O)on2)CC1 | > 112 µM (not active) | > 112 µM (not active) | – |
| Cn1cc(S(=O)(=O)N2CCOCC2)cc1C(=O)Nc1ccc(Cl)cc1 | > 112 µM (not active) | > 112 µM (not active) | – |
| COc1ccc(/C=C/CN2CCCC(CO)(Cc3cccc(Cl)c3)C2)cc1 (centres undefined) | > 112 µM (not active) | > 112 µM (not active) | – |
| Cc1cc(NC(=O)/C=C/c2cccc(Cl)c2)n(-c2nc3ccccc3[nH]2)n1 | 49.7 µM (active) | > 112 µM (not active) | – |
| O=C(O)c1ccc(COc2cccc(CO)c2)cc1 | 4.38 µM (active) | 44.4 µM (active) | – |
| COc1ccc(CCNCc2ccc(OCC(=O)N3CCCCC3)c(OC)c2)cc1OC | 16.3 µM (active) | > 112 µM (not active) | EC50 [6]: > 60 µM (inconclusive); EC50 [7]: 133 nM (active) |
| Cc1ccc(C)c(N(CC(=O)Nc2ccccc2C(=O)NCc2ccco2)S(=O)(=O)c2ccccc2)c1 | – | – | EC50 [1]: > 120 µM (not active); EC50 [2]: 15.6 µM (active); EC50 [3]: > 120 µM (not active) |
| CCOC(=O)C1=C(C)OC(N)=C(C#N)C1C1CCCCC1 (centres undefined) | > 112 µM (not active) | > 112 µM (not active) | – |
| CCOc1cccc(-c2c(C(=O)N/N=C/c3ccc(C)s3)nnn2-c2nonc2N)c1 | > 112 µM (not active) | > 112 µM (not active) | – |
| Cc1nc(O)nc(O)c1/C=N/NC(=O)CCNC(=O)OC(C)(C)C | > 112 µM (not active) | > 112 µM (not active) | – |
| CCc1nc(SCC(=O)Nc2cccc(C(F)(F)F)c2)c2c(=O)n(C)c(=O)n(C)c2n1 | – | – | EC50 [1]: 16.4 µM (active); EC50 [2]: 19.1 µM (active); EC50 [3]: 15.9 µM (active) |
| CC1CCCCN1Cc1nc2c(c(=O)n(C)c(=O)n2C)n1CCc1ccccc1 (centres undefined) | > 112 µM (not active) | > 112 µM (not active) | – |
| O=C(NCc1ccco1)c1ccc(-c2ccccc2Cl)o1 | > 112 µM (not active) | > 112 µM (not active) | – |
| CCOC(=O)c1ccc2nc(NC(=O)c3cccs3)sc2c1 | 10.7 µM (active) | 0.729 µM (active) | – |
| COc1ccc(-c2cn3c([n+]2-c2ccccc2)CCCCC3)cc1 | – | – | EC50 [8]: > 150 µM (inactive); AC50 (INS1): 2.58 µM (active); EC50 [9]: 2.53 µM (active) |
| CCCCN(C)S(=O)(=O)c1ccc(C(=O)Nc2nnc(-c3cccs3)o2)cc1 | – | – | EC50 [8]: > 150 µM (inactive); EC50 [6]: 8 µM (active); EC50 (Streptococcus): 3.65 µM (active); EC50 [9]: 0.861 µM (active); EC50 [7]: 1090 nM (active); EC50 [10]: 680 nM (active) |
| COCCCNc1nc(N)c([N+](=O)[O-])c(NCc2ccccc2)n1 | – | – | EC50 [1]: > 120 µM (not active); EC50 [2]: 19.4 µM (active); EC50 [3]: 14.2 µM (active) |
